Data as given in patent publication US8252283B2, “Method for treating vascular disorders” (Cytotools GmbH, priority 1999, dated 2012).
“Also recorded” adds a separate entry of the source.

Tests used:
HUVEC [1] = assay: Apoptosis rate after cone and plate shear pre-cultivation and transfer to static wells, DAPI staining (Examples 11, 12); format: cell-based, human; settings: for Apoptosis rate (%) with EGTA and with peptides: 0.5 mM EGTA, RGD peptide 250 μg/ml + IAP peptide 400 μg/ml
Experimental: The cone and plate shear apparatus is first cleaned with a soft cloth and 70% ethanol, the cone is sterilized, and the apparatus is then stabilized at 37° C. in a heating cabinet for at least 30 min. The precultivated cells are washed with culture medium and provided with 0.06 ml/cm^2 fresh culture medium, and the culture dish is rapidly fitted into the cone and plate shear apparatus.
The cone is raised using the coarse adjustment, and the culture dish together with lid is carefully inserted into the holder provided therefor. The lid is taken off and the cone is lowered onto the culture dish and adjusted: the tip of a cone is then a minimal distance from the cell lawn and the cone moves round without abrading. The assembled cone and plate shear apparatus is placed in an incubator at 37° C., 5% (v/v) CO2 with a water vapor-saturated atmosphere for dynamic cultivation of the cells.
(§1) The culture supernatant is aspirated off of a Petri dish, and the cell lawn is fixed with 1 ml of formaldehyde solution on ice for 15 minutes, washed twice with 2 ml of PBS, treated with 0.5 ml of DAPI solution for 15 minutes, washed with PBS and evaluated under a fluorescence microscope. The UV filter set and a 20× or 40× objective are used. 500-1 000 cells are selected at random, and the cells with apoptotic nuclei are counted.
The culture dish is removed and divided into 12 independent culture wells (culture area of each well 0.8 cm^2) by putting in a suitable insert. Half of the culture is cultivated in culture medium with EGTA and the second half is cultivated in culture medium without EGTA. […] The apoptosis rate is determined by staining the apoptotic cells with DAPI.

perfused HUVEC = assay: Apoptosis rate of endothelial cells in dynamic (perfusion) culture, DAPI staining; format: cell-based, human; settings: for Effect on apoptosis (in words): perfusion culture
Experimental: as §1
(§2) After complete confluence is reached, the cells are employed for the test. Firstly, thrombospondin 1 is added in various concentrations (1-600 μg/ml) to fresh medium and compared with the effect of conditioned medium on the spontaneous apoptosis rate of HUVEC. […] The apoptosis rate is determined by staining apoptotic cells with DAPI.

HUVEC [2] = assay: Induced calcium influx into the cells, intracellular calcium indicator Fluo-3 AM; format: cell-based, human; settings: static culture, measured at addition of substance
Experimental: Fluo-3 is a calcium indicator which forms a fluorescent complex after binding of Ca^2+. The ester Fluo-3 AM is taken up by the cells through diffusion. The calcium indicator Fluo 3 is produced only after hydrolysis of the ester in the cell. […] The measurement is carried out with normal fluorescein filters. At an excitation wavelength of 488 nm (500 nm), the emission maximum is at 525 nm and increases by a factor of 100 (200) through calcium binding.
Confluent HUVEC cell lawns in 24-well plates are washed three times with serum-free medium, incubated with preheated serum-free medium with Fluo-3 AM under culture conditions for 30 minutes and washed three times, and the plate is measured with a fluorimeter. First the sensitivity of the instrument is adjusted, and then fluorescence values corresponding to the instantaneous calcium level in the cell are recorded every 1-10 seconds. Substances can be added to the cells while the measurement is taking place. […] Assessment of the calcium level is possible with this method.
The influx of calcium into the cells can be employed as early indicator.
The test system can also be carried out with the calcium indicator Fluo-3 AM. […] The cells are employed for the test after complete confluence is reached. […] During the measurement, the substances b, c, e, f, g are added to the cells. […]

[3] = tested on: human umbilical vein endothelial cells (HUVEC); assay: Apoptosis rate of confluent endothelial cells in static culture, DAPI staining; format: cell-based; settings: for Effect on the apoptosis rate (in words): substance(s) added to fresh medium
Experimental: HUVEC are cultivated in gelatin-coated culture vessels at 37° C., 5% CO2 with a water vapor-saturated air atmosphere. The culture medium is changed every 2-3 days; at confluence, the cells are passaged with a division rate of from 1:3 to 1:5. HUVEC grow with strict contact inhibition and form monolayer cell lawns with a typical cobblestone morphology. At confluence, the cultures reach cell densities of 4-9×10^4 cells/cm^2. Only HUVEC cultures of passages 1-4 are used for apoptosis investigations.
as §1
The apoptosis index is calculated by the following formula: […]
as §2
The cells are seeded into the appropriate culture vessels (e.g. 24-well plate/0.5 ml per well) and employed for the test after complete confluence is reached. Investigations into the effect of various peptides and proteins (table 2) on the apoptosis rate of endothelial cells are carried out.
The cells are seeded in the appropriate culture vessels (e.g. 24-well plate/0.5 ml per well) and employed for the test after complete confluence is reached. […] The apoptotic cells and the total cell count are determined and the apoptosis index is calculated (percent of apoptotic cells). The data of 3 independent experiments are indicated in table 1, stating the mean and standard deviation.

[4] = static, 48 h, substance(s) in fresh medium, TSP 1 μg/ml, RGD 250 μg/ml, CBD 400 μg/ml

Q: What does the source list for O=C(O)CN(CCOCCOCCN(CC(=O)O)CC(=O)O)CC(=O)O [EGTA]?
A: Apoptosis rate (%) with EGTA [2.5 mM] (HUVEC [1]; 0 hours): 0.40 ± 0.22%; Apoptosis rate (%) with EGTA and with peptides (HUVEC [1]; 0 hours): 0.45 ± 0.24%; Apoptosis rate (%) with EGTA [2.5 mM] (HUVEC [1]; 2 hours): 0.42 ± 0.22%; Apoptosis rate (%) with EGTA and with peptides (HUVEC [1]; 2 hours): 1.00 ± 0.29%; Apoptosis rate (%) with EGTA [2.5 mM] (HUVEC [1]; 3 hours): 0.96 ± 0.27%; Apoptosis rate (%) with EGTA and with peptides (HUVEC [1]; 3 hours): 0.65 ± 0.24%; Apoptosis rate (%) with EGTA [2.5 mM] (HUVEC [1]; 4 hours): 1.56 ± 0.23%; Apoptosis rate (%) with EGTA and with peptides (HUVEC [1]; 4 hours): 1.25 ± 0.33%; Apoptosis rate (%) with EGTA [2.5 mM] (HUVEC [1]; 5 hours): 2.26 ± 0.35%; Effect on the apoptosis rate (in words) (HUVEC [1]; EGTA in culture medium with the active peptides): significant reduction in the apoptosis rate; Effect on the apoptosis rate (in words) (HUVEC [1]; culture medium with 2.5 mmol/l EGTA, static after shear apparatus): significant reduction in the apoptosis rate

Q: Which results are given for Thrombospondin 1 [TSP-1]?
A: Apoptosis rate (%) after 24 h (perfused HUVEC; dynamic culturing conditions, TSP-1 1 μg/ml): <0.1%; Effect on apoptosis (in words) (perfused HUVEC): no effect on apoptosis; Effect on apoptosis (in words) (perfused HUVEC; listed as Thrombospondin): no effect on perfused HUVEC; Effect on intracellular calcium level (in words) (HUVEC [2]): increase in the intracellular calcium level; also recorded: calcium influx into the cell; Apoptosis rate (%) ([3]; static culture, 24 h, substance alone (in fresh medium; TSP-1 1 μg/ml, antiserum 1:20, mAb 1:30)): 3.0 ± 0.4%; Effect on the apoptosis rate (in words) ([3]; static culture): increase in spontaneous apoptosis; Effect on the apoptosis rate (in words) ([3]; static culture, listed as thrombospondin): significant increase in the apoptosis rate; Apoptosis rate (%) after 24 h ([3]; static culturing conditions, TSP-1 1 μg/ml): 3.0 ± 0.4%; Apoptosis rate (%) [3, 4]: 6.9 ± 1.2%; Apoptosis rate [%] (with SEM) ([3]; static, 48 hours, fresh medium + TSP-1 1 μg/ml alone): 7.3 ± 0.6%

Q: “cyclic Arg-Gly-Asp-(D-Phe)-Val peptide [active RGD]” was tested. Which “Effect on the apoptosis rate (in words)” value ([3]; static culture) did it give?
A: no effect on the apoptosis rate

Q: And the “Apoptosis rate (%)” value [3, 4]?
A: 1.2 ± 0.5%
